Ends that are not written are not given here.
What was measured:
p65 = molecular target: T1, p65 (Homo sapiens, UniProt Q04206); experiment: Co-IP of p65 by SFB-tagged RL peptide in 293T cells; format: binding; details: 48 hours after transfection
T1 construct: endogenous in cells; host or cells: 293T
Procedure: FIGS. 10A-G. (A) Schematic diagram depicting a set of RB-N recombinant protein constructs. Western blot analysis of p65 proteins in PC-3 cells whole cell lysate pulled down by GST or GST-RB-N recombinant proteins. Stars indicate expected molecular weight. (B) Western blot analysis of in vitro transcribed and translated p65 proteins pulled down by GST or GST-RB recombinant proteins. Stars indicate expected molecular weight. (C) Western blot analysis of WCL and co-IP samples in 293T cells 48 h after transfected with indicated constructs. (D) Schematic diagram depicting an evolutionally conserved R-linker region in the N-terminal of RB. FIG. 10D discloses SEQ ID NOS 265 and 271-274, respectively, in order of appearance. (E) Western blot analysis of WCL and co-IP samples in 293T cells 48 hours after transfected with indicated constructs. (F) PC-3 cells were transfected with indicated plasmids. Western blot analysis of HA-RB proteins in PC-3 whole cell lysate pulled down by GST or GST-p65 recombinant proteins. Stars indicate expected molecular weight. (G) Schematic diagram depicting fully positively charged RB-N allows otherwise negatively charged by S249/T252 phosphorylation to bind to negatively charged 166FSLMV170 motif (SEQ ID NO: 286) in EID1. FIG. 10G discloses SEQ ID NOS 265-266 and 275, respectively, in order of appearance. […]

PTEN-CaP8 tumors [1] = experiment: FACS of tumor-infiltrating immune cells in PTEN-CaP8 tumors; format: in vivo, mouse; details: 12 Gy
Procedure: (§1) FIGS. 6A-J. The small S249/T252 phosphorylation-mimicking polypeptide of RB blocks irradiation-induced PD-L1 expression and inhibits cancer immune evasion. (A, B) PC-3 cells were infected with lentivirus expressing control shRNA or p65-specific or shRNA. 24 hours after puromycin selection, cells were treated with or without gamma irradiation (IR) (12 Gy). 48 hours after IR treatment, cells were harvested for western blotting analysis (A) and RT-qPCR analysis (B). All data were shown as mean values±SD (n=3). * P<0.05, ** P<0.01, *** P<0.001. (C, D) PC-3 cells were treated with without gamma irradiation (12 Gy). Cells were harvested at the indicated time point for western blotting analysis (C) and RT-qPCR analysis (D). All data were shown as mean values±SD (n=3). * P<0.05, ** P<0.01, *** P<0.001. (E) Western blot analysis of WCL and co-IP samples in PC-3 cells 48 hours after treated with or without gamma irradiation (12 Gy). […] (J) The absolute number of CD45^+CD8^+ T cells, CD45^+CD4^+ T cells, and CD11b^+Gr1^+ myeloid cells of implanted PTEN-CaP8 in tumors treated with indicated agents was analyzed by FACS. […]
For flow cytometry analysis of mouse tissue samples, tumors were cut into small pieces and digested with 2 mg/mL collagenase (Sigma) in DMEM for 1 hour at 37° C. […] After incubated with antibody for 30 minutes, cells were washed with PBS and analyzed on a flow cytometer.

PTEN-CaP8 tumors [2] = experiment: PTEN-CaP8 mice tumor model, tumor growth; format: in vivo, mouse; details: C57BL/6 mice, s.c. PTEN-CaP8 tumors
Procedure: as §1
6-week-old C57BL/6 mice (Jackson Lab) were used for animal experiments. […] The volume of xenografts was measured every other day and calculated using the formula L×W2×0.5. […]

T1 sequence (Q04206 whole entry): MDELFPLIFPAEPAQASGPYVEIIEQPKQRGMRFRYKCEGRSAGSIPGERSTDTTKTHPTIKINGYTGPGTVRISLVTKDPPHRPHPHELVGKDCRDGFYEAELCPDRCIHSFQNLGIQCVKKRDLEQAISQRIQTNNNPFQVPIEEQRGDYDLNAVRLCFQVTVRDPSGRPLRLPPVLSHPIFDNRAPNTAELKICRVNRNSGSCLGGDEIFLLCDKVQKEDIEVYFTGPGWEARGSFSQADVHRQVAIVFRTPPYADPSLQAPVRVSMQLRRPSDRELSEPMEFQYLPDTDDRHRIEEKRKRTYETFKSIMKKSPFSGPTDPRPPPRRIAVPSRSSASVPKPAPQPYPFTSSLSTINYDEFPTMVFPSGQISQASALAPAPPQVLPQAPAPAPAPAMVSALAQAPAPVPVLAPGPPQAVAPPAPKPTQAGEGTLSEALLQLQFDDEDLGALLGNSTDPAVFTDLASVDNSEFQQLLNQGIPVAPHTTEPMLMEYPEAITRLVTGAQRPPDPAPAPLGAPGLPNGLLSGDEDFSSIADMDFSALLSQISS

RL-S249D/T252D: S249/T252 phospho-mimicking R-Linker (RL) peptide: fragment of RB-N containing 21 amino acids surrounding S249/T252, expressed SFB-tagged or by lentivirus (NGDPRDPRRGQNRSARIAKQL; also: expressed SFB-tagged (tag left off))
immunoprecipitation of p65 by SFB-tagged RL peptide (p65): effectively immunoprecipitated
CD11b+Gr1+ myeloid cells in tumors, agent combined with irradiation (PTEN-CaP8 tumors [1]): sharp decrease
CD45+CD8+ and CD45+CD4+ T cell infiltration in tumors, agent combined with irradiation (PTEN-CaP8 tumors [1]): dramatic increase
tumor growth, agent combined with gamma irradiation (PTEN-CaP8 tumors [2]; 12 Gy): tumors regressed
tumor growth, agent without irradiation (PTEN-CaP8 tumors [2]; anti-PD-L1 200 μg or lentiviral peptide expression): markedly inhibited

Reference: patent US20210401931A1, “METHODS AND MATERIALS FOR TREATING CANCER” (Mayo Foundation for Medical Education and Research, priority 2018, published 2021)
